This passage reports Ki results from US7964624B1, “Inhibitors of serine proteases” (priority 2005, dated 2011).

The assay concerns the target T1, full-length hepatitis C viral protein NS3•4A (Hepatitis C virus genotype 1a, UniProt P27958).
T1 construct: hexa-histidine (N); made in house; host or cells: Sf9 insect cells (baculovirus, pVL1392)
Put plainly: biochemical. Conditions: Enzyme Assay 2 (HCV NS3 Peptide Cleavage Assay) activity, apparent Ki class. On the set-up: species or system HCV sub-type strain 1a.

Structures are written as SMILES. pKi: −log10 of the molar value.

Take `CC(C)(C)[C@H](NC(=O)CC1CCCCC1)C(=O)N1C[C@@]2(CC(c3cccc(Cl)c3)=NO2)C[C@H]1C(=O)N[C@@H](CC1CC1)C(=O)C(=O)NC1CC1` [Compound 50]: the negative logarithm of the Ki (pKi) – broadly, the negative decadic logarithm of the Ki, by convention in mol/L – was above 7.00.

Regarding `COc1cc(OC)c(C2=NO[C@]3(C2)CC(C(=O)N[C@@H](CC2CC2)C(=O)C(N)=O)N(C(=O)[C@@H](NC(=O)CC2CCCCCC2)C(C)(C)C)C3)cc1Cl` (some centres unmarked) [Compound 59], the negative-log Ki (pKi) is above 7.00.

As to `CCC[C@H](NC(=O)[C@@H]1C[C@]2(CC(c3cccc4cccnc34)=NO2)CN1C(=O)[C@@H](NC(=O)CC1CCCCC1)C(C)(C)C)C(=O)C(=O)NC` [Compound 68], the pKi was above 7.00.

On to `CCC[C@H](NC(=O)[C@@H]1C[C@]2(CC(c3cccc([N+](=O)[O-])c3)=NO2)CN1C(=O)[C@@H](NC(=O)CC1CCCCC1)C(C)(C)C)C(=O)C(=O)NC1CC1` [Compound 89], for which the pKi is 6.30 to 7.00.

`CCC[C@H](NC(=O)[C@@H]1C[C@]2(CC(c3cccc(Cl)c3)=NO2)CN1C(=O)[C@@H](NC(=O)OC(C)(C)C)C(C)(C)C)C(=O)C(=O)NC1CC1` [Compound 90]: the negative logarithm of the Ki (pKi) is above 7.00.

Turning to `COc1cc(OC)c(C2=NO[C@]3(C2)C[C@@H](C(=O)N[C@@H](CC2CC2)C(=O)C(N)=O)N(C(=O)[C@@H](NC(=O)CC(C)(C)C)C(C)(C)C)C3)cc1Cl` [Compound 104], the negative logarithm of the Ki (pKi) is above 7.00.

In the case of `CCC[C@H](NC(=O)[C@@H]1C[C@]2(CC(c3cc(Cl)c(OC)cc3OC)=NO2)CN1C(=O)[C@@H](NC(=O)CC1CCCCCC1)C(C)(C)C)C(=O)C(=O)NC1CC1` [Compound 129], the pKi was above 7.00.

On to `CCC[C@H](NC(=O)[C@@H]1C[C@]2(CC(c3cc(Cl)c(OC)cc3OC)=NO2)CN1C(=O)[C@@H](NC(=O)OC(C)(C)C)C(C)(C)C)C(=O)C(=O)NC1CC1` [Compound 131], for which the pKi was above 7.00.

As to `CCC[C@H](NC(=O)[C@@H]1C[C@]2(CC(c3cccc(Cl)c3F)=NO2)CN1C(=O)[C@@H](NC(=O)CC1CCCCC1)C(C)(C)C)C(=O)C(=O)NC1CC1` [Compound 169], the pKi was 6.30 to 7.00.

In the case of `CCC[C@H](NC(=O)[C@@H]1C[C@]2(CC(c3cc(Cl)cc4c3OC(C)(C)C4)=NO2)CN1C(=O)[C@@H](NC(=O)CC1CCCCC1)C(C)(C)C)C(=O)C(=O)NC1CC1` [Compound 170], the negative-log Ki (pKi) was above 7.00.

For the molecule `CC1(CC(=O)N[C@H](C(=O)N2C[C@@]3(CC(c4cccc(Cl)c4)=NO3)C[C@H]2C(=O)N[C@@H](CC2CC2)C(=O)C(N)=O)C(C)(C)C)CCOCC1` [Compound 184], the pKi is above 7.00.

`COc1c(C)cc(C2=NO[C@]3(C2)C[C@@H](C(=O)N[C@@H](CC2CC2)C(=O)C(N)=O)N(C(=O)[C@@H](NC(=O)CC2CCCCC2)C(C)(C)C)C3)cc1Cl` [Compound 195]: the negative logarithm of the Ki (pKi) is above 7.00.

Regarding `CCC[C@H](NC(=O)[C@@H]1C[C@]2(CC(c3cccc(Cl)c3)=NO2)CN1C(=O)[C@@H](NC(=O)CC1CCCCC1)C1(OC)CC1)C(=O)C(=O)NC1CC1` [Compound 211], the negative-log Ki (pKi) was above 7.00.

Regarding `CC(C)(C)[C@H](NC(=O)CC1CCCCCC1)C(=O)N1C[C@@]2(CC(c3cccc(Cl)c3)=NO2)C[C@H]1C(=O)N[C@@H](CC1CC1)C(=O)C(N)=O` [Compound 219], the pKi was above 7.00.

For the molecule `CCC[C@H](NC(=O)[C@@H]1C[C@]2(CC(c3cccc(Cl)c3)=NO2)CN1C(=O)[C@@H](NC(=O)CC1CCCCC1)C(C)(C)C)C(=O)C(=O)N1CC(OC[C@H]2CCCO2)C1` [Compound 238], the pKi was below 6.30.

For the molecule `CCC[C@H](NC(=O)[C@@H]1C[C@]2(CC(c3cc(Cl)cc(OC)c3)=NO2)CN1C(=O)[C@@H](NC(=O)CC1CCCCC1)C(C)(C)C)C(=O)C(=O)NC1CC1` [Compound 250], the pKi was above 7.00.

As for `COc1cc(OC)c(C2=NO[C@]3(C2)C[C@@H](C(=O)N[C@@H](CC2CC2)C(=O)C(N)=O)N(C(=O)[C@@H](NC(=O)OC(C)(C)C)C(C)(C)C)C3)cc1Cl` [Compound 264], the pKi was above 7.00.

For `CCC[C@H](NC(=O)[C@@H]1C[C@]2(CC(c3cc(Cl)c(OC)cc3OC)=NO2)CN1C(=O)[C@@H](NC(=O)CC1(C)CCOCC1)C(C)(C)C)C(=O)C(=O)NC1CC1` [Compound 286], the pKi was above 7.00.

As for `CCC[C@H](NC(=O)[C@@H]1C[C@]2(CC(c3cc(Cl)c(OC)cc3OC)=NO2)CN1C(=O)[C@@H](NC(=O)CC(C)(C)C)C(C)(C)C)C(=O)C(=O)NC1CC1` [Compound 297], the pKi is above 7.00.

On to `CCC[C@H](NC(=O)[C@@H]1C[C@]2(CC(c3cc(F)cc4c3OCOC4)=NO2)CN1C(=O)[C@@H](NC(=O)CC1CCCCC1)C(C)(C)C)C(=O)C(=O)NC1CC1` [Compound 305], for which the pKi was 6.30 to 7.00.

`CCC[C@H](NC(=O)[C@@H]1C[C@]2(CC(c3cccc(Cl)c3)=NO2)CN1C(=O)[C@@H](NC(=O)CC1CC2CCC1C2)C1(OC)CC1)C(=O)C(=O)NC1CC1` (some centres unmarked) [Compound 346]: the pKi is above 7.00.

With `CCC[C@H](NC(=O)[C@@H]1C[C@]2(CC(c3cc(Cl)c(OC)cc3OC)=NO2)CN1C(=O)[C@@H](NC(=O)CC1(C)CCOCC1)C(C)(C)C)C(=O)C(=O)N1CCC1` [Compound 356], the pKi was above 7.00.

As for `CCC[C@H](NC(=O)[C@@H]1C[C@]2(CC(c3cccc(Cl)c3)=NO2)CN1C(=O)[C@@H](NC(=O)CC1CCCCC1)C(C)(C)C)C(=O)C(=O)N1CC(OC2CCOC2)C1` (some centres unmarked) [Compound 368], the negative-log Ki (pKi) is 6.30 to 7.00.

Regarding `CCC[C@H](NC(=O)[C@@H]1C[C@]2(CC(c3cccc(Cl)c3)=NO2)CN1C(=O)[C@@H](NC(=O)OC1CCCC1)C(C)(C)C)C(=O)C(=O)NC1CC1` [Compound 369], the negative-log Ki (pKi) is above 7.00.

Turning to `CCC[C@H](NC(=O)[C@@H]1C[C@]2(CC(c3cccc(Cl)c3)=NO2)CN1C(=O)Cc1ccc(OC(F)(F)F)cc1)C(=O)C(=O)NC1CC1` [Compound 380], the negative-log Ki (pKi) was below 6.30.

Turning to `CCC[C@H](NC(=O)[C@@H]1C[C@]2(CC(c3cc(C)cc(Cl)c3)=NO2)CN1C(=O)[C@@H](NC(=O)CC1CCCCC1)C(C)(C)C)C(=O)C(=O)NC1CC1` [Compound 396], the negative logarithm of the Ki (pKi) is above 7.00.

For `CCC[C@H](NC(=O)[C@@H]1C[C@]2(CC(c3cc(C)c(OCC4CC4)c(C)c3)=NO2)CN1C(=O)[C@@H](NC(=O)CC1CCCCC1)C(C)(C)C)C(=O)C(=O)NC1CC1` [Compound 406], the pKi was above 7.00.

`CCC[C@H](NC(=O)[C@@H]1C[C@]2(CC(c3cc(Cl)c(OC)cc3OC)=NO2)CN1C(=O)[C@@H](NC(=O)CC1CC2CCC1C2)C(C)(C)C)C(=O)C(=O)NC1CC1` (some centres unmarked) [Compound 446]: the negative logarithm of the Ki (pKi) was above 7.00.

Turning to `C[C@@H]1CC(CC(=O)N[C@H](C(=O)N2C[C@@]3(CC(c4cccc(Cl)c4)=NO3)C[C@H]2C(=O)N[C@@H](CC2CC2)C(=O)C(N)=O)C(C)(C)C)C[C@@H](C)O1` (some centres unmarked) [Compound 468], the pKi was above 7.00.

Regarding `CC(C)(C)[C@H](NC(=O)[C@@H]1C[C@H]1c1ccccc1)C(=O)N1C[C@@]2(CC(c3cccc(Cl)c3)=NO2)C[C@H]1C(=O)N[C@@H](CC1CC1)C(=O)C(N)=O` [Compound 485], the pKi was above 7.00.

As for `CCC[C@H](NC(=O)[C@@H]1C[C@]2(CC(c3cc(C)c(OCC)c(C)c3)=NO2)CN1C(=O)[C@@H](NC(=O)CC1CCCCC1)C(C)(C)C)C(=O)C(=O)NC1CC1` [Compound 513], the negative-log Ki (pKi) was above 7.00.

Consider `CNC(=O)C(=O)[C@H](CC1CC1)NC(=O)[C@@H]1C[C@]2(CC(c3cccc(Cl)c3)=NO2)CN1C(=O)[C@@H](NC(=O)CC1CCCCC1)C(C)(C)C` [Compound 522], for which the pKi is above 7.00.
